Holding throughout (format): cell-based
One experiment has as its target human TLR8 (Homo sapiens (Human), UniProt Q9NR97). Briefly: TLR8 inhibition reporter assay (HEK-Blue, SEAP). The following applies: HEK-Blue cells overexpressing human TLR8, R848 15.9 μM stimulation. Summed up:
(§1)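 Cells are treated with compound over a 0.05 nM–50 μM final range for 30 min at room temperature before agonist addition: gardiquimod at 7.5 μM for TLR7, R848 at 15.9 μM for TLR8, ODN2006 at 5 nM for TLR9. SEAP is measured after 22 h at 37 °C.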

Another experiment deals with human TLR7 (Homo sapiens (Human), UniProt Q9NYK1). Briefly: TLR7 inhibition reporter assay (HEK-Blue, SEAP). The following applies: HEK-Blue cells overexpressing human TLR7, gardiquimod 7.5 μM stimulation. In a few lines:
as §1

A further experiment concerns the target human TLR9 (Homo sapiens (Human), UniProt Q9NR96). The experiment can be described thus: TLR9 inhibition reporter assay (HEK-Blue, SEAP). The following applies: HEK-Blue cells overexpressing human TLR9, ODN2006 5 nM stimulation. In a few lines:
as §1

The pIC50 is the negative decadic logarithm of the IC50, by convention in mol/L. The low end stands for a large IC50, the high end for a small IC50.

pIC50: −log10 of the molar value. Some results are limits rather than exact numbers.

Chain of human TLR9 (Q9NR96 26-1032): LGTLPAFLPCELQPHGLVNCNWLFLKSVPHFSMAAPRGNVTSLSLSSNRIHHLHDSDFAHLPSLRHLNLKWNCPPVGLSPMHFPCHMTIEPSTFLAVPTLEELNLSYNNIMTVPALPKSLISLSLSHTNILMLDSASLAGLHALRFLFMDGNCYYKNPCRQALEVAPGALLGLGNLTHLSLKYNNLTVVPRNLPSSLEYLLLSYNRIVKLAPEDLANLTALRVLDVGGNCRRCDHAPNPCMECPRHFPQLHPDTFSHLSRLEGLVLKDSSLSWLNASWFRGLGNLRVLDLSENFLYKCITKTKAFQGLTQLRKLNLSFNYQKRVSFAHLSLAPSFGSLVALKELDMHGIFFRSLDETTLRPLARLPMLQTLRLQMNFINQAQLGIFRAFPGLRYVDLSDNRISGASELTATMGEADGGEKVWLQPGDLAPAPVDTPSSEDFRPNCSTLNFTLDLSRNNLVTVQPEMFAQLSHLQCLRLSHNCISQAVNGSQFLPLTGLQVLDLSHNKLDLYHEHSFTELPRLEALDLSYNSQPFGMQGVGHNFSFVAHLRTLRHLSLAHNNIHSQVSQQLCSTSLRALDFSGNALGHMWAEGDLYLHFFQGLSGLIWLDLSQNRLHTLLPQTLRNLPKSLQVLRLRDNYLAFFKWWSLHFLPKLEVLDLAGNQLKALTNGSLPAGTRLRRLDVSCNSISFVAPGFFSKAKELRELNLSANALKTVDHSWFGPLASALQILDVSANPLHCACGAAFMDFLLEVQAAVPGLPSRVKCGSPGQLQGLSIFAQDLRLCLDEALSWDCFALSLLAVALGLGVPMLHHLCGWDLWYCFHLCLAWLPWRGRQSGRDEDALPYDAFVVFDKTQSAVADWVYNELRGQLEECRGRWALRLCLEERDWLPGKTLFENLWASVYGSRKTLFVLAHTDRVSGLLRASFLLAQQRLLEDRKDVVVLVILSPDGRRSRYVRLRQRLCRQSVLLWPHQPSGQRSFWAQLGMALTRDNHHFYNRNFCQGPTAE
Chain of human TLR7 (Q9NYK1 27-1049): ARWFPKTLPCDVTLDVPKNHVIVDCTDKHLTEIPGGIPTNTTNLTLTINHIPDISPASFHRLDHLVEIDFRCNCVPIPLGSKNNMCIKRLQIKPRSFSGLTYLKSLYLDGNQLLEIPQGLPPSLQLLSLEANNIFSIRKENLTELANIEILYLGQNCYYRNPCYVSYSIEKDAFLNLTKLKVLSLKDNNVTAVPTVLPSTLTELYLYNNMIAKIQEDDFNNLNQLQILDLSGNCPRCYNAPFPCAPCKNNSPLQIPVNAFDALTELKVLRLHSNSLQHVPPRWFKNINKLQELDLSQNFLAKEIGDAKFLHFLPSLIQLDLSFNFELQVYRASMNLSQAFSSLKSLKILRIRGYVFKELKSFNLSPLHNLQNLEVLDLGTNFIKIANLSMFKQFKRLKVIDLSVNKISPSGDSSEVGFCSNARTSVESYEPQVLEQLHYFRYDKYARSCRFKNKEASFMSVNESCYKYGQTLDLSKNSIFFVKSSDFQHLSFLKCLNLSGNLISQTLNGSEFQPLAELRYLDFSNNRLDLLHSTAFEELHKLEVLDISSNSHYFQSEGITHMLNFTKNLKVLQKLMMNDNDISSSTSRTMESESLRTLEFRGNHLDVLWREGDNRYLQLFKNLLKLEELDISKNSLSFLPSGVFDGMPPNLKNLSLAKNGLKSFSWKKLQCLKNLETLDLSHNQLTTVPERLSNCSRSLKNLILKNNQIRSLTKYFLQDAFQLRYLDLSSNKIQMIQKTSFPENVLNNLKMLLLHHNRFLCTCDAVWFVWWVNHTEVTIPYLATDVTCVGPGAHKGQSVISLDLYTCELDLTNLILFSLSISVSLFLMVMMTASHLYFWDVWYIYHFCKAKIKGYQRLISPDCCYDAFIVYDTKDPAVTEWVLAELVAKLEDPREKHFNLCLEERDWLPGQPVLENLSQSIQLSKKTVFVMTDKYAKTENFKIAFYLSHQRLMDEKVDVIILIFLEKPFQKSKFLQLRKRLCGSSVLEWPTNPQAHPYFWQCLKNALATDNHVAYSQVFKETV
Chain of human TLR8 (Q9NR97 27-1041): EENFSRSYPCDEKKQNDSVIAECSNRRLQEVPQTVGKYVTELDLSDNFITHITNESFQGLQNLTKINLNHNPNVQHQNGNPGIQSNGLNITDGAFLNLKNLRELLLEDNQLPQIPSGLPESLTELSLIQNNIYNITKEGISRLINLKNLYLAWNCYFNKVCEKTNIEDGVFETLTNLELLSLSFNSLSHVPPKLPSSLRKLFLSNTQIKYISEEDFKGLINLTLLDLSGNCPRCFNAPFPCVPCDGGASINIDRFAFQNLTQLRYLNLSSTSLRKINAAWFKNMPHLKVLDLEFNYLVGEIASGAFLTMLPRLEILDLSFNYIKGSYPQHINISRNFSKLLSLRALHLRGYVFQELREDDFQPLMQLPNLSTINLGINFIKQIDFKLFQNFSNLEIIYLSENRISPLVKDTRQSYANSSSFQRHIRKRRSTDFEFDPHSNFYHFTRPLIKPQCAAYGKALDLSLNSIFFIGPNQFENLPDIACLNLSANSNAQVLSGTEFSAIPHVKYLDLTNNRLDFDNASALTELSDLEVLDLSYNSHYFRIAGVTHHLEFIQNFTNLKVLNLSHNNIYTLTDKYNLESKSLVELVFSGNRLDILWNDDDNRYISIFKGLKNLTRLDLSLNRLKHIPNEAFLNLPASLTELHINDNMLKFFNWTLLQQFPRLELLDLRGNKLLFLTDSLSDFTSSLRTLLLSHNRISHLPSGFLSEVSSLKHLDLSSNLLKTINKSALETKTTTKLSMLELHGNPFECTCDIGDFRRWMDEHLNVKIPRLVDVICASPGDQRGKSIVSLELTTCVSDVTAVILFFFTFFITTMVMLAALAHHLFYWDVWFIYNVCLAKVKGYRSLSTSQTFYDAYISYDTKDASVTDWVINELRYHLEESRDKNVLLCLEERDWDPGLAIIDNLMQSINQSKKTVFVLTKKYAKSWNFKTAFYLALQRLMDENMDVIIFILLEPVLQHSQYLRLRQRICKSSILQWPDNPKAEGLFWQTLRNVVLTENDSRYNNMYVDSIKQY

For `COc1ccc(-c2[nH]c3ccc(-c4cccc(N5CCN(CC(C)C)CC5)c4)cc3c2C(C)C)cc1OC` [Example 371, 2-(3,4-dimethoxyphenyl)-5-(3-(4-isobutylpiperazin-1-yl)phenyl)-3-isopropyl-1H-indole], the negative logarithm of the IC50 (pIC50) at human TLR8 was 6.75; against human TLR7 it was 6.05; at human TLR9 it was 4.99.

In the case of `COc1ccc(-c2[nH]c3ccc(-c4ccc(-c5cccc(CN6CCN(C)CC6)c5)cc4)cc3c2C(C)C)cc1OC` [Example 373, 2-(3,4-dimethoxyphenyl)-3-isopropyl-5-(3′-((4-methylpiperazin-1-yl)methyl)-[1,1′-biphenyl]-4-yl)-1H-indole], the pIC50 against human TLR8 is 4.70; at human TLR7 it was 5.73; against human TLR9 it was 5.36.

`COc1ccc(-c2[nH]c3ccc(-c4ccc(-c5cccc(CN(C)C)c5)cc4)cc3c2C(C)C)cc1OC` [Example 374, 1-(4′-(2-(3,4-dimethoxyphenyl)-3-isopropyl-1H-indol-5-yl)-[1,1′-biphenyl]-3-yl)-N,N-dimethylmethanamine]: the pIC50 against human TLR8 was 6.50; against human TLR7, 6.37; at human TLR9, under 4.30.

With `COc1ccc(-c2[nH]c3ccc(-c4ccc(C5=CCN(C6CCN(CC(C)C)CC6)CC5)cc4)cc3c2C)cc1OC` [Example 375, 2-(3,4-dimethoxyphenyl)-5-(4-(1-(1-isobutylpiperidin-4-yl)-1,2,3,6-tetrahydropyridin-4-yl)phenyl)-3-methyl-1H-indole], the values for the pIC50 against human TLR8, on human TLR7 and against human TLR9 were 4.91, under 4.30 and 6.54, respectively.

For the molecule `COc1ccc(-c2[nH]c3ccc(-c4ccc(C5=CCN(C)CC5)cc4)cc3c2C)cc1OC` [Example 376, 2-(3,4-dimethoxyphenyl)-3-methyl-5-(4-(1-methyl-1,2,3,6-tetrahydropyridin-4-yl)phenyl)-1H-indole], the pIC50 against human TLR8 is 6.31; on human TLR7 it was 5.54; against human TLR9 it was 5.62.

As for `COc1ccc(-c2[nH]c3ccc(-c4ccc(C5=CC(C)(C)NC(C)(C)C5)cc4)cc3c2C(C)C)cc1OC` [Example 377, 2-(3,4-dimethoxyphenyl)-3-isopropyl-5-(4-(2,2,6,6-tetramethyl-1,2,3,6-tetrahydropyridin-4-yl)phenyl)-1H-indole], the pIC50 at human TLR8 is 6.47; at human TLR7, 6.05; at human TLR9, 5.32.

Take `COc1ccc(-c2[nH]c3ccc(-c4ccc(N5CCCN(CCO)CC5)cc4)cc3c2C(C)C)cc1OC` [Example 379, 2-(4-(4-(2-(3,4-dimethoxyphenyl)-3-isopropyl-1H-indol-5-yl)phenyl)-1,4-diazepan-1-yl)ethan-1-ol]: the pIC50 against human TLR8 was 7.15; against human TLR7 it was 6.16; on human TLR9, 5.53.

Turning to `COc1ccc(-c2[nH]c3ccc(-c4ccc(N5CCCN(C)CC5)cc4)cc3c2C(C)C)cc1OC` [Example 380, 2-(3,4-dimethoxyphenyl)-3-isopropyl-5-(4-(4-methyl-1,4-diazepan-1-yl)phenyl)-1H-indole], the pIC50 was 7.46 on human TLR8, 6.06 on human TLR7 and 5.53 at human TLR9.

On to `CCc1c(-c2ccc(OC)c(OC)c2)[nH]c2ccc(-c3ccc(N4CCN(C)CC4)cc3)cc12` [Example 381, 2-(3,4-dimethoxyphenyl)-3-ethyl-5-(4-(4-methylpiperazin-1-yl)phenyl)-1H-indole], for which the pIC50 on human TLR8 was 4.65; at human TLR7, 6.29; at human TLR9, 4.33.

As for `COc1ccc(-c2[nH]c3ccc(-c4ccc(N5CCN(C(C)C)CC5)cc4)cc3c2C(C)C)cc1OC` [Example 382, 2-(3,4-dimethoxyphenyl)-3-isopropyl-5-(4-(4-isopropylpiperazin-1-yl)phenyl)-1H-indole], the pIC50 against human TLR8 was 7.49; against human TLR7, 6.80; at human TLR9, 6.04.

With `COc1ccc(-c2[nH]c3ccc(-c4ccc(N5CCN[C@H](C)C5)cc4)cc3c2C(C)C)cc1OC` [Example 383, (R)-2-(3,4-dimethoxyphenyl)-3-isopropyl-5-(4-(3-methylpiperazin-1-yl)phenyl)-1H-indole], the pIC50 is 7.35 at human TLR8, 6.87 against human TLR7 and 5.33 at human TLR9.

For `CCc1c(-c2ccnc3[nH]ncc23)[nH]c2ccc(-c3ccc(N4CCN(C)CC4)cc3)cc12` [Example 384, 4-(3-ethyl-5-(4-(4-methylpiperazin-1-yl)phenyl)-1H-indol-2-yl)-1H-pyrazolo[3,4-b]pyridine], the pIC50 against human TLR8 was 7.92; against human TLR7, 6.84; on human TLR9, 5.71.

`COc1ccc(-c2[nH]c3ccc(-c4ccc(NC5CCN(C(C)C)CC5)cc4)cc3c2C(C)C)cc1OC` [Example 385, N-(4-(2-(3,4-dimethoxyphenyl)-3-isopropyl-1H-indol-5-yl)phenyl)-1-isopropylpiperidin-4-amine]: the pIC50 was 7.52 against human TLR8, 6.74 on human TLR7 and 5.23 on human TLR9.

With `COc1ccc(-c2[nH]c3ccc(-c4ccc(NCC5CCN(C)C5)cc4)cc3c2C(C)C)cc1OC` (stereo not drawn) [Example 386, 4-(2-(3,4-dimethoxyphenyl)-3-isopropyl-1H-indol-5-yl)-N-((1-methylpyrrolidin-3-yl)methyl)aniline], the pIC50 was 8.02 against human TLR8, 6.77 against human TLR7 and 5.43 on human TLR9.

With `COc1ccc(-c2[nH]c3ccc(-c4ccc(OC5CCN(C)CC5)cc4)cc3c2C(C)C)cc1OC` [Example 387, 2-(3,4-dimethoxyphenyl)-3-isopropyl-5-(4-((1-methylpiperidin-4-yl)oxy)phenyl)-1H-indole], the pIC50 on human TLR8 was 7.66; at human TLR7, 7.47; at human TLR9, 5.41.

With `COc1ccc(-c2[nH]c3ccc(-c4ccc(OC5CCN(CC(C)C)CC5)cc4)cc3c2C(C)C)cc1OC` [Example 388, 2-(3,4-dimethoxyphenyl)-5-(4-((1-isobutylpiperidin-4-yl)oxy)phenyl)-3-isopropyl-1H-indole], the results for the pIC50 at human TLR8, on human TLR7 and against human TLR9 were 6.46, 6.20 and under 4.30, respectively.

In the case of `COc1ccc(-c2[nH]c3ccc(-c4ccc(OC5CCN(C(C)C)CC5)cc4)cc3c2C(C)C)cc1OC` [Example 389, 2-(3,4-dimethoxyphenyl)-3-isopropyl-5-(4-((1-isopropylpiperidin-4-yl)oxy)phenyl)-1H-indole], the pIC50 against human TLR8 was 6.90; on human TLR7, 6.47; at human TLR9, 5.63.

For the molecule `COc1ccc(-c2[nH]c3ccc(-c4ccc(N5CCN(C(C)=O)CC5)nc4)cc3c2C(C)C)cc1OC` [Example 390, 1-(4-(5-(2-(3,4-dimethoxyphenyl)-3-isopropyl-1H-indol-5-yl)pyridin-2-yl)piperazin-1-yl)ethan-1-one], the pIC50 on human TLR8 is 7.36; at human TLR7, 6.01; at human TLR9 it was under 4.30.

As to `COc1ccc(-c2[nH]c3ccc(-c4ccc(N5CCN(C)CC5)nc4)cc3c2C(C)C)cc1OC` [Example 392, 2-(3,4-dimethoxyphenyl)-3-isopropyl-5-(6-(4-methylpiperazin-1-yl)pyridin-3-yl)-1H-indole], the pIC50 against human TLR8 is 8.12; on human TLR7, 7.49; on human TLR9, 5.97.

In the case of `COc1ccc(-c2[nH]c3ccc(-c4ccc(N5CCN(C(C)C)CC5)nc4)cc3c2C(C)C)cc1OC` [Example 393, 2-(3,4-dimethoxyphenyl)-3-isopropyl-5-(6-(4-isopropylpiperazin-1-yl)pyridin-3-yl)-1H-indole], the pIC50 was 7.96 at human TLR8, 7.22 against human TLR7 and 6.18 at human TLR9.

Take `CC(C)c1c(-c2ccnc3[nH]ncc23)[nH]c2ccc(-c3ccc4[nH]c(=O)cc(O)c4c3)cc12` [Example 394, 4-hydroxy-6-(3-isopropyl-2-(1H-pyrazolo[3,4-b]pyridin-4-yl)-1H-indol-5-yl)quinolin-2(1H)-one]: the pIC50 against human TLR8 was 6.66; against human TLR7, 6.04; at human TLR9, under 4.30.

For the molecule `CC(C)c1c(-c2ccnc3[nH]ncc23)[nH]c2ccc(-c3ccc4c(cnn4C)c3)cc12` [Example 395, 4-(3-isopropyl-5-(1-methyl-1H-indazol-5-yl)-1H-indol-2-yl)-1H-pyrazolo[3,4-b]pyridine], the figures for the pIC50 on human TLR8, against human TLR7 and against human TLR9 were 6.95, 6.31 and 4.36, respectively.

As to `COc1ccc(-c2[nH]c3ccc(-c4cccc(-c5cccc(CN6CCOCC6)c5)c4)cc3c2C(C)C)cc1OC` [Example 396, 4-((3′-(2-(3,4-dimethoxyphenyl)-3-isopropyl-1H-indol-5-yl)-[1,1′-biphenyl]-3-yl)methyl)morpholine], the results for the pIC50 on human TLR8, against human TLR7 and on human TLR9 were 6.28, 5.64 and under 4.30, respectively.

Regarding `COc1ccc(-c2[nH]c3ccc(-c4cccc(-c5cccc(CN(C)C)c5)c4)cc3c2C(C)C)cc1OC` [Example 397, 1-(3′-(2-(3,4-dimethoxyphenyl)-3-isopropyl-1H-indol-5-yl)-[1,1′-biphenyl]-3-yl)-N,N-dimethylmethanamine], the pIC50 is 7.00 against human TLR8, 5.48 on human TLR7 and 5.38 against human TLR9.

Consider `COc1ccc(-c2[nH]c3ccc(-c4ccc(CCCN5CCOCC5)cc4)cc3c2C(C)C)cc1OC` [Example 398, 4-(3-(4-(2-(3,4-dimethoxyphenyl)-3-isopropyl-1H-indol-5-yl)phenyl)propyl)morpholine], for which the pIC50 was 5.67 against human TLR8, 6.25 against human TLR7 and 5.59 at human TLR9.
